According to patent US6593480B2 (Abbott Laboratories, priority 1999, dated 2003):

Legend:
[1] = molecular target: T1, Human glucocorticoid receptors (Homo sapiens, UniProt P04150); assay: Radioligand filter binding assay, displacement of 3(H)-dexamethasone from human glucocorticoid receptor cytosol; settings: 1.7 μM test compound; inhibition of 3(H)-dex binding to hGR; read-out: GR BINDING (% Inhibition @ 1.7 μM)
T1 construct: made in house; host or cells: Sf9 insect cells, recombinant baculovirus (BAC-TO-BAC)
T1 sequence (P04150 1-777): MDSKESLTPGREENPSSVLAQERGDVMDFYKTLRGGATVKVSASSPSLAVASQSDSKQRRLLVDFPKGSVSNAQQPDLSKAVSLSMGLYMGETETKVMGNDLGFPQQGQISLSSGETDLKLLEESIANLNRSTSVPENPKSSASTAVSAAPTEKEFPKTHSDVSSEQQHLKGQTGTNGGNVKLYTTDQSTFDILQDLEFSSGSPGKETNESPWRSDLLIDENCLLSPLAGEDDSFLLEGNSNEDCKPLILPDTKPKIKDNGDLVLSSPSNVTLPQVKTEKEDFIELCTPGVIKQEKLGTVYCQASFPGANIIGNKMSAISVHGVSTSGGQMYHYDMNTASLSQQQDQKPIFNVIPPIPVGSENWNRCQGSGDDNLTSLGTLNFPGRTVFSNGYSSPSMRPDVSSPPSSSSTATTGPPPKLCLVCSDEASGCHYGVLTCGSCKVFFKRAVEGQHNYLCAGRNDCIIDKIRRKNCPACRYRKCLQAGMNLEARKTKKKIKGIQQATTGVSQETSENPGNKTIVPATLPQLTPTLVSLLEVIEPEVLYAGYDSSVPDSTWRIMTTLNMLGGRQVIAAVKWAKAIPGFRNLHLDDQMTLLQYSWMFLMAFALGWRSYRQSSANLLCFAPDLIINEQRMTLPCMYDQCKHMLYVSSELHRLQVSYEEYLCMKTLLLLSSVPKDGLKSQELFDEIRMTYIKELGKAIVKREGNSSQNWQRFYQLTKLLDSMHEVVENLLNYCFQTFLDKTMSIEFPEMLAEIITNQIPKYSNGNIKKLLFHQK

[2] = molecular target: T2, progesterone receptor (PR) (Homo sapiens, UniProt P06401); assay: Radioligand binding assay with progesterone receptor cytosol (similar protocol)
T2 sequence (P06401 1-933): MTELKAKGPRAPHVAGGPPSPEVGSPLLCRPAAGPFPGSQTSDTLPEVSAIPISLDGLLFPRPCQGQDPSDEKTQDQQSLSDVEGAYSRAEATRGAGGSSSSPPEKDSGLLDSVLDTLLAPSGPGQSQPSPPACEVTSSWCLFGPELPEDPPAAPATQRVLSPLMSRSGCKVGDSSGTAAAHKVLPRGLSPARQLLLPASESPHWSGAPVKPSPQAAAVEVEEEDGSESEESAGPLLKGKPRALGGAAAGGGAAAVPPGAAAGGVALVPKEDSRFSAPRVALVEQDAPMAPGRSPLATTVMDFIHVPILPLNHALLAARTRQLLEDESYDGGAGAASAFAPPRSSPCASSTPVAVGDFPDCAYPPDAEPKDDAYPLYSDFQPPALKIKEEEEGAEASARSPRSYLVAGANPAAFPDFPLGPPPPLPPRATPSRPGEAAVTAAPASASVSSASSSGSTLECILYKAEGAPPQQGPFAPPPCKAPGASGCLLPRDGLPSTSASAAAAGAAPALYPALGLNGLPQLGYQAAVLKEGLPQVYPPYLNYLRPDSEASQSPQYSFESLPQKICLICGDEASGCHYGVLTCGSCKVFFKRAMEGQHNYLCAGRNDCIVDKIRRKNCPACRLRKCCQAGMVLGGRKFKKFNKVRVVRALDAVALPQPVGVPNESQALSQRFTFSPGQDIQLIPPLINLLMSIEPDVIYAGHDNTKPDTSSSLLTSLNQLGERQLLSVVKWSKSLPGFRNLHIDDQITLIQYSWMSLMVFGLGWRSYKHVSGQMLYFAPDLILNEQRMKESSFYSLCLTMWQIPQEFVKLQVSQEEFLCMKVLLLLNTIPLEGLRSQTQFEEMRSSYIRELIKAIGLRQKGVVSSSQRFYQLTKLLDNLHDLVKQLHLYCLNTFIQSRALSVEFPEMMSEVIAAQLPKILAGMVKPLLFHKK
From the text: Methods for Radioligand Binding Studies with Human Glucocorticoid and Progesterone Receptor Cytosol
A similar protocol was employed to measure affinity of the compounds of the present invention for progesterone receptor (PR).

Structure (SMILES) | inhibition at 1.7 µM [1] | IC50 [2]
COCC#Cc1ccc(C2Oc3cccc(OC)c3-c3ccc(NS(C)(=O)=O)cc32)s1 (centres unmarked) [Example 92, N-{1-methoxy-6-[5-(3-methoxy-1-propynyl)-2-thienyl]-6H-benzo[c]chromen-8-yl}methanesulfonamide] |  | 51 nM
COc1cccc2c1-c1ccc(NS(C)(=O)=O)cc1C(c1cccc(N(C)S(C)(=O)=O)c1)O2 (centres unmarked) [Example 83, N-(1-methoxy-6-{3-[methyl(methylsulfonyl)amino]phenyl}-6H-benzo[c]chromen-8-yl)methanesulfonamide] |  | 3630 nM
COc1cccc2c1-c1ccc(NS(C)(=O)=O)cc1C(c1cccc(-c3ccc(N(C)C)cc3)c1)O2 (centres unmarked) [Example 133, N-{6-[4′-(dimethylamino)[1,1′-biphenyl]-3-yl]-1-methoxy-6H-benzo[c]chromen-8-yl}methanesulfonamide] |  | > 10000 nM
C=CCOc1ccc(C2Oc3cccc(OC)c3-c3ccc(NS(C)(=O)=O)cc32)cc1 (centres unmarked) [Example 32, (1methoxy-6-(4-allyloxy)phenyl-6H-dibenzo(b,d)pyran-8-yl)-methanesulfonamide] |  | > 10000 nM
COc1cccc2c1-c1ccc(NS(C)(=O)=O)cc1C(c1cccc(-c3ccc(C)cc3)c1)O2 (centres unmarked) [Example 123, N-[1-methoxy-6-(4′-methyl[1,1′-biphenyl]-3-yl)-6H-benzo[c]chromen-8-yl]methanesulfonamide] |  | > 10000 nM
CS(=O)(=O)Nc1ccc2c(c1)C(c1ccc(Br)s1)Oc1cccc(OC(F)F)c1-2 (centres unmarked) [Example 96, N-{6-(5-bromo-2-thienyl)-1-(difluoromethoxy)-6H-benzo[c]chromen-8-yl}methanesulfonamide] |  | 120 nM
CNc1cccc(C2Oc3cccc(OC)c3-c3ccc(NS(C)(=O)=O)cc32)c1 (centres unmarked) [Example 81, N-{1-methoxy-6-[3-(methylamino)phenyl]-6H-benzo[c]chromen-8-yl}methanesulfonamide] |  | 9360 nM
Nc1ccc2c(c1Br)C(c1ccccc1)Oc1cccc(OC(F)F)c1-2 (centres unmarked) [Example 4, 8-Amino-7-bromo-1-difluoromethoxy-6-phenyl-6H-dibenzo[b,d]pyran] |  | 460 nM
COc1cccc2c1-c1ccc(NS(C)(=O)=O)cc1C(c1cccc(-c3ccc(Cl)c(Cl)c3)c1)O2 (centres unmarked) [Example 127, N-[6-(3′,4′-dichloro[1,1′-biphenyl]-3-yl)-1-methoxy-6H-benzo[c]chromen-8-yl]methanesulfonamide] |  | > 10000 nM
O=S(=O)(Nc1ccc2c(c1)C(c1ccccc1)Oc1cccc(OC(F)F)c1-2)c1cccs1 (centres unmarked) [Example 26, N-(1-difluoromethoxy-6-phenyl-6H-dibenzo[b,d]pyran-8-yl)-thiophene-2-sulfonamide] |  | 29 nM
COc1cccc(-c2cccc(C3Oc4cccc(OC)c4-c4ccc(NS(C)(=O)=O)cc43)c2)c1 (centres unmarked) [Example 124, N-[1-methoxy-6-(3′-methoxyl[1,1′-biphenyl]-3-yl)-6H-benzo[c]chromen-8-yl]methanesulfonamide] |  | > 10000 nM
COc1cccc2c1-c1ccc(NS(C)(=O)=O)cc1C(c1cccc(-c3ccc(O)cc3)c1)O2 (centres unmarked) [Example 128, N-[6-(4′-hydroxy[1,1′-biphenyl]-3-yl)-1-methoxy-6H-benzo[c]chromen-8-yl]methanesulfonamide] |  | 880 nM
COc1cccc2c1-c1ccc(NS(C)(=O)=O)cc1C(c1ccc(C#CCCCO)s1)O2 (centres unmarked) [Example 102, N-{6-[5-(5-hydroxy-1-pentynyl)-2-thienyl]-1-methoxy-6H-benzo[c]chromen-8-yl}methanesulfonamide] |  | > 1000 nM
COc1cccc2c1-c1ccc(NS(C)(=O)=O)cc1C(c1cccc(N(C)S(=O)(=O)CCCCl)c1)O2 (centres unmarked) [Example 130, 3-chloro-N-(3-{1-methoxy-8-[(methylsulfonyl)amino]-6H-benzo[c]chromen-6-yl}phenyl)-N-methyl-1-propanesulfonamide] |  | > 10000 nM
COc1ccc(-c2cccc(C3Oc4cccc(OC)c4-c4ccc(NS(C)(=O)=O)cc43)c2)cc1 (centres unmarked) [Example 125, N-[1-methoxy-6-(4′-methoxy[1,1′-biphenyl]-3-yl)-6H-benzo[c]chromen-8-yl]methanesulfonamide] |  | > 10000 nM

Continued, values first:

inhibition at 1.7 µM [1] | IC50 [2] | Structure (SMILES)
83.5% |  | CCOC(=O)CCCc1cccc(C2Oc3cccc(OC(F)F)c3-c3ccc(NS(C)(=O)=O)cc32)c1 (centres unmarked) [Example 115, ethyl 4-(3-{1-(difluoromethoxy)-8-[(methylsulfonyl)amino]-6H-benzo[c]chromen-6-yl}phenyl)butanoate]
76.6% |  | CS(=O)(=O)Nc1ccc2c(c1)C(c1cccc(CCCC(=O)O)c1)Oc1cccc(OC(F)F)c1-2 (centres unmarked) [Example 121, 4-(3-{1-(difluoromethoxy)-8-[(methylsulfonyl)amino]-6H-benzo[c]chromen-6-yl}phenyl)butanoic acid]
 | 260 nM | CS(=O)(=O)Nc1ccc2c(c1)C(c1cccc(-c3ccccc3Cl)c1)Oc1cccc(OC(F)F)c1-2 (centres unmarked) [Example 146, N-[6-(2′-chloro[1,1′-biphenyl]-3-yl)-1-(difluoromethoxy)-6H-benzo[c]chromen-8-yl]methanesulfonamide]
 | 390 nM | COc1ccc(-c2cccc(C3Oc4cccc(OC(F)F)c4-c4ccc(NS(C)(=O)=O)cc43)c2)cc1 (centres unmarked) [Example 145, N-[1-(difluoromethoxy)-6-(4′-methoxy[1,1′-biphenyl]-3-yl)-6H-benzo[c]chromen-8-yl]methanesulfonamide]
 | 1050 nM | C=CCOc1cccc(C2Oc3cccc(OC(F)F)c3-c3ccc(NS(C)(=O)=O)cc32)c1 (centres unmarked) [Example 116, N-[6-[3-(allyloxy)phenyl]-1-(difluoromethoxy)-6H-benzo[c]chromen-8-yl]methanesulfonamide]
 | 500 nM | CCOCCCc1cccc(C2Oc3cccc(OC(F)F)c3-c3ccc(NS(C)(=O)=O)cc32)c1 (centres unmarked) [Example 120, N-{1-(difluoromethoxy)-6-[3-(3-ethoxypropyl)phenyl]-6H-benzo[c]chromen-8-yl}methanesulfonamide]
 | > 10000 nM | CS(=O)(=O)Nc1ccc2c(c1)C(c1cccc(CCCCc3ccccc3)c1)Oc1cccc(OC(F)F)c1-2 (centres unmarked) [Example 136, N-{1-(difluoromethoxy)-6-[3-(4-phenylbutyl)phenyl]-6H-benzo[c]chromen-8-yl}methanesulfonamide]
 | 1960 nM | CCOC(=O)CCCCCc1cccc(C2Oc3cccc(OC(F)F)c3-c3ccc(NS(C)(=O)=O)cc32)c1 (centres unmarked) [Example 119, ethel 6-(3-{1-(difluoromethoxy)-8-[(methylsulfonyl)amino]-6H-benzo[c]chromen-6-yl}phenyl)hexanoate]
 | 60 nM | CS(=O)(=O)Nc1ccc2c(c1)C(c1cccc(F)c1)Oc1cccc(OC(F)F)c1-2 (centres unmarked) [Example 107, N-[1-(difluoromethoxy)-6-(3-fluorophenyl)-6H-benzo[c]chromen-8-yl]methanesulfonamide]
 | 290 nM | CCOC(=O)c1cccc(C2Oc3cccc(OC(F)F)c3-c3ccc(NS(C)(=O)=O)cc32)c1 (centres unmarked) [Example 114, ethyl 3-{1-(difluoromethoxy)-8-[(methylsulfonyl)amino]-6H-benzo[c]chromen-6-yl}benzoate]
 | 250 nM | CS(=O)(=O)Nc1ccc2c(c1)C(c1ccc(Br)cc1)Oc1cccc(OC(F)F)c1-2 (centres unmarked) [Example 109, N-[6-(4-bromophenyl)-1-(difluoromethoxy)-6H-benzo[c]chromen-8-yl]methanesulfonamide]
